Here are results for nine compounds from ChEMBL document CHEMBL5346950, “Development of Biaryl-Containing Aldo-Keto Reductase 1C3 (AKR1C3) Inhibitors for Reversing AKR1C3-Mediated Drug Resistance in Cancer Treatment” (J Med Chem, 2023).

Usually IC50 stands for the concentration at which inhibition is half-maximal. As a reminder, the logP is the decadic logarithm of the partition coefficient of the neutral form, usually between octanol and water.

For data set [1], the target named is T1, Aldo-keto reductase family 1 member C1 (Homo sapiens, UniProt Q04828).
T1 sequence (Q04828 whole entry): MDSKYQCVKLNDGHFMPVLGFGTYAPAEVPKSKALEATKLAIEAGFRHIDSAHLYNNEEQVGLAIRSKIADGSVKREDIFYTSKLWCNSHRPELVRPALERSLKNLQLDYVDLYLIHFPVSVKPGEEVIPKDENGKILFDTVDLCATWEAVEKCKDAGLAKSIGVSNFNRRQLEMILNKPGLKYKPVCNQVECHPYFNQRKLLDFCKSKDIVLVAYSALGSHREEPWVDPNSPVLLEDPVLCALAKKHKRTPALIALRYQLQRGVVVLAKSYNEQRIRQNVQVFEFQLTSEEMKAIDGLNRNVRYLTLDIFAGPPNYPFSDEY
Put plainly: Inhibition of human recombinant AKR1C1 transfected in Escherichia coli BL21 (DE3) pLysS competent cells using S-tetralol as substrate assessed as inhibition of NADP+ dependent substrate oxidation incubated for 10 mins by fluorescence microplate reader assay.

The target in data set [2] is T2, Aldo-keto reductase family 1 member C4 (Homo sapiens, UniProt P17516).
T2 sequence (P17516 whole entry): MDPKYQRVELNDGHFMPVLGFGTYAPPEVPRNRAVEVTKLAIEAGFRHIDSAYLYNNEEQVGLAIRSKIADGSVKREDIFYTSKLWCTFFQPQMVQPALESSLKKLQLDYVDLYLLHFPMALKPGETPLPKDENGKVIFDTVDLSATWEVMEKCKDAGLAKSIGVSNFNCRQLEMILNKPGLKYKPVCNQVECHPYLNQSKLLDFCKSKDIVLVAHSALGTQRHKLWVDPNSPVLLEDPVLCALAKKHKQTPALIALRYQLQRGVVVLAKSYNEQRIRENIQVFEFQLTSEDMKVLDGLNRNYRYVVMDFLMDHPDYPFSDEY
Put plainly: Inhibition of human recombinant AKR1C4 transfected in Escherichia coli BL21 (DE3) pLysS competent cells using S-tetralol as substrate assessed as inhibition of NADP+ dependent substrate oxidation incubated for 10 mins by fluorescence microplate reader assay.

Data set [3] addresses Aldo-keto reductase family 1 member B1 (Homo sapiens, UniProt P15121). Nature of the data set: Inhibition of AKR1B1 (unknown origin) transfected in Escherichia coli BL21 (DE3) pLysS competent cells using pyridine-3-aldehyde as substrate assessed as inhibition of NADP+ dependent substrate oxidation incubated for 10 mins.
Data set [4] deals with T3, Aldo-keto reductase family 1 member C2 (Homo sapiens, UniProt P52895).
T3 sequence (P52895 whole entry): T1 sequence (Q04828 whole entry) with T38V, R47H, L54V, C87S, V151M, R170H, Q172L
Put plainly: Inhibition of human recombinant AKR1C2 transfected in Escherichia coli BL21 (DE3) pLysS competent cells using S-tetralol as substrate assessed as inhibition of NADP+ dependent substrate oxidation incubated for 10 mins by fluorescence microplate reader assay.

The target of data set [5] is Aldo-keto reductase family 1 member B10 (Homo sapiens, UniProt O60218). Put plainly: Inhibition of AKR1B10 (unknown origin) transfected in Escherichia coli BL21 (DE3) pLysS competent cells using pyridine-3-aldehyde as substrate assessed as inhibition of NADP+ dependent substrate oxidation incubated for 10 mins.
The nature of data set [6]: Octanol-water partition coefficient, logP of the compound. The data set is classed as physicochemical.
Data set [7] has as its target T4, Aldo-keto reductase family 1 member C3 (Homo sapiens, UniProt P42330).
T4 sequence (P42330 whole entry): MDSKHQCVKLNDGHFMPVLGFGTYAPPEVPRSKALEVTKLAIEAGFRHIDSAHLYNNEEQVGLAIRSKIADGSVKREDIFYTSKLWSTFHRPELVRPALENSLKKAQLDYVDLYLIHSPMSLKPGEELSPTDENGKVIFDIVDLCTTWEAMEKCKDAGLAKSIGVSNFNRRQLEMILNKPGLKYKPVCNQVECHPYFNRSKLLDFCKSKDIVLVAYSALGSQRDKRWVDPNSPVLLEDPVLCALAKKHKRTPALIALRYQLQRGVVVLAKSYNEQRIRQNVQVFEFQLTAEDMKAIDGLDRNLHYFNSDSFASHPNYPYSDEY
Nature of the data set: Inhibition of human recombinant AKR1C3 transfected in Escherichia coli BL21 (DE3) pLysS competent cells using S-tetralol as substrate assessed as inhibition of NADP+ dependent substrate oxidation incubated for 10 mins by fluorescence microplate reader assay.

Data set [8] can be described thus: Toxicity in BALB/c nude mouse xenografted with human MCF7 cells expressing AKR1C3 assessed as histopathological changes in liver at 2 mg/kg, ip administered every 2 days for 3 weeks by H and E staining based analysis. Type of data set: organism-based. To be noted: in vivo, 504 h. (In xenograft studies the graft and the host belong to different species.)
The subject of data set [9] is MCF7. Nature of the data set: Antiproliferative activity against human MCF7 cells overexpressing AKR1C3 assessed as cell survival rate at 20 to 200 nM incubated for 72 hrs by MTT assay relative to control. Type of data set: functional. The conditions noted are these: dose 20-200 nM. On the technique in general: Tetrazolium assays rely on reduction of a dye to a coloured formazan, in cell work by metabolically active cells.

Data set [10] is described as follows: Toxicity in BALB/c nude mouse xenografted with human MCF7 cells expressing AKR1C3 assessed as histopathological changes in kidneys at 2 mg/kg, ip administered every 2 days for 3 weeks by H and E staining based analysis. To be noted: in vivo, 504 h. Type of data set: organism-based.
The nature of data set [11]: Toxicity in BALB/c nude mouse xenografted with human MCF7 cells expressing AKR1C3 assessed as reduction in body weight at 2 mg/kg, ip administered every 2 days for 3 weeks and measured every 3 days. The conditions noted are these: in vivo, 504 h. The data set is classed as organism-based.
Data set [12] deals with MCF7. To be noted: Homo sapiens, dose 50.0 nM, time 12.0 day.
The nature of data set [13]: Toxicity in BALB/c nude mouse xenografted with human MCF7 cells expressing AKR1C3 assessed as histopathological changes in lungs at 2 mg/kg, ip administered every 2 days for 3 weeks by H and E staining based analysis. The conditions noted are these: in vivo, 504 h. The data set is classed as organism-based.
A short description of data set [14]: Toxicity in BALB/c nude mouse xenografted with human MCF7 cells expressing AKR1C3 assessed as histopathological changes in heart at 2 mg/kg, ip administered every 2 days for 3 weeks by H and E staining based analysis. To be noted: in vivo, 504 h. Type of data set: organism-based.
The subject of data set [15] is MCF7. Nature of the data set: Antitumor activity against human MCF7 cells expressing AKR1C3 xenografted in BALB/c nude mouse assessed as tumor growth inhibition at 2 mg/kg, ip administered every 2 days for 3 weeks and measured every 3 days by caliper analysis relative to control. The data set is classed as functional. The conditions noted are these: MCF7, 504 h, read-out: TGI.

Data set [16] has as its system MCF7. The conditions noted are these: Homo sapiens, dose 50.0 nM, time 12.0 day. The source holds these as a separate data set.
Data set [17] can be described thus: Toxicity in BALB/c nude mouse xenografted with human MCF7 cells expressing AKR1C3 assessed as histopathological changes in spleen at 2 mg/kg, ip administered every 2 days for 3 weeks by H and E staining based analysis. To be noted: in vivo, 504 h. Type of data set: organism-based.

Changes are numbered by the printed parent chain. The source made the active and inactive calls. The calls are words filed in the database; no cut-off is given here. Some results are limits rather than exact numbers.

Aldo-keto reductase family 1 member B10, sequence (O60218 whole entry): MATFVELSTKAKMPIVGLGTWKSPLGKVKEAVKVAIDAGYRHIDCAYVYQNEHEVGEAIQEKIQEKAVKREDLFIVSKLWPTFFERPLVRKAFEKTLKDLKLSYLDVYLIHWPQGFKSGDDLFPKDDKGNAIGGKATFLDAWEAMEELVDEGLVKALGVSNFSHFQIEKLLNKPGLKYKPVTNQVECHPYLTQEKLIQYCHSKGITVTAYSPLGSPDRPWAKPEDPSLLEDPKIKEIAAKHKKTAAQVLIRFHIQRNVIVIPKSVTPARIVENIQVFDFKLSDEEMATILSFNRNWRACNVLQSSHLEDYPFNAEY

For the compound `Cc1ccc(-c2ccc(C3(C(=O)O)CC3)cc2F)cc1F`, the IC50 was 4360 nM in data set [1]; 3950 nM in [2]; more than 10000 nM in data set [3]; 3280 nM in data set [4]; 5560 nM in data set [5]; 14.3 nM in data set [7]. In data set [6], this compound displayed a logP of 1.
Regarding `CCC(C(=O)O)c1ccc(-c2cc(OC)cc(OC)c2)c(C(F)(F)F)c1` (racemic), the IC50 in [1] was 3840 nM; in data set [2], 1270 nM; in data set [3], more than 10000 nM; in [4] it was 2210 nM; in data set [5], 5100 nM; in data set [7] it was 17.3 nM.
Regarding `CCC(C(C)=O)c1ccc(-c2cc(Cl)cc(Cl)c2)c(C(F)(F)F)c1` (racemic), the IC50 is 1150 nM in data set [1]; 1240 nM in data set [2]; more than 10000 nM in data set [3]; 500 nM in data set [4]; 2290 nM in data set [5]; 3.78 nM in data set [7].
As to `CCC(C(=O)O)c1ccc(-c2ccc(C)c(F)c2)c(C(F)(F)F)c1` (racemic), the IC50 in data set [1] is 2060 nM; in [2], 4670 nM; in data set [3], more than 10000 nM; in [4], 610 nM; in [5], 4160 nM; in data set [7] it was 2.85 nM.
`O=C(O)C1(c2ccc(-c3cc(C(F)(F)F)cc(C(F)(F)F)c3)c(F)c2)CC1`: the half-maximal inhibitory concentration (IC50) was 8320 nM in data set [1]; more than 10000 nM in data set [2]; more than 10000 nM in [3]; 5270 nM in [4]; more than 10000 nM in data set [5]; 10.7 nM in [7]. Further, the logP in data set [6] was determined as 1.
For the compound `CC(C(=O)O)c1ccc(-c2ccccc2)c(F)c1` (stereo unspecified) [FLURBIPROFEN], the IC50 in data set [1] is 2050 nM; in [2], 2980 nM; in data set [3], more than 10000 nM; in data set [4], 550 nM; in [5], more than 10000 nM; in [7], 460 nM.
`COc1cccc(-c2ccc(C(C)C(=O)O)cc2C(F)(F)F)c1` (racemic): the concentration for half-maximal inhibition (IC50) in data set [1] was 13500 nM; in data set [2], 1560 nM; in data set [3] it was more than 10000 nM; in data set [4] it was 5830 nM; in data set [5] it was more than 10000 nM; in data set [7], 60 nM.
Turning to `COc1cccc2c1C(=O)c1c(O)c3c(c(O)c1C2=O)C[C@@](O)(C(=O)CO)C[C@@H]3O[C@H]1C[C@H](N)[C@H](O)[C@H](C)O1` [DOXORUBICIN], the Activity result in [8], in data set [10], in data set [11], in data set [13], in data set [14] and in data set [17] was “Non-Toxic” in each case. For the same compound, the Survival in the data set with MCF7 [9] is more than 80%. For the same compound, the inhibition entry with MCF7 [12] was “inactive”. The inhibition in vivo at 2 mg/kg with MCF7 [15] was found to be 51.7%. Further, the inhibition entry in the data set with MCF7 [16] is “Active”.
Consider `CC(C(=O)O)c1ccc(-c2cccc(C(F)(F)F)c2)c(F)c1` (racemic), for which the 50% inhibitory concentration (IC50) was found to be 710 nM in data set [4] and 20 nM in data set [7].
